Data on six compounds can be found in PMC4382718 (Carbohydrate research, 2015).

Read-outs that look alike come from different tables or passages of the source.

Test [1] concerns the target T1, Aspergillus saitoi α1,2-mannosidase (AspMan) (Aspergillus phoenicis, UniProt Q12563).
T1 sequence (Q12563 22-513): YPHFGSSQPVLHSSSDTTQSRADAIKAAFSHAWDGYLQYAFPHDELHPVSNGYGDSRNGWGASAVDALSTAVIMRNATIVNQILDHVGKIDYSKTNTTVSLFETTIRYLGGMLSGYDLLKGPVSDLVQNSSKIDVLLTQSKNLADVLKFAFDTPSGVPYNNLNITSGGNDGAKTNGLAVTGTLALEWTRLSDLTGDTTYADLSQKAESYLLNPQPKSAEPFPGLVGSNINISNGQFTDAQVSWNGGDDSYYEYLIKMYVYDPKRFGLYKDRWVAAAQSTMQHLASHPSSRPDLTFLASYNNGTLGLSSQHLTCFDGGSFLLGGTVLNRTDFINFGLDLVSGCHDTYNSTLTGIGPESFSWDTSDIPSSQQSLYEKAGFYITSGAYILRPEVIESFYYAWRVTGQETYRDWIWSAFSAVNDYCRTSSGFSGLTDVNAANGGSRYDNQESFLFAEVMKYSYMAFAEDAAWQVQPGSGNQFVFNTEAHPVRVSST
The class given is biochemical.

For test [2], the target named is T2, dLManII (Drosophila melanogaster lysosomal α-mannosidase II) (Drosophila melanogaster, UniProt Q9VKV1).
T2 sequence (Q9VKV1 25-1080): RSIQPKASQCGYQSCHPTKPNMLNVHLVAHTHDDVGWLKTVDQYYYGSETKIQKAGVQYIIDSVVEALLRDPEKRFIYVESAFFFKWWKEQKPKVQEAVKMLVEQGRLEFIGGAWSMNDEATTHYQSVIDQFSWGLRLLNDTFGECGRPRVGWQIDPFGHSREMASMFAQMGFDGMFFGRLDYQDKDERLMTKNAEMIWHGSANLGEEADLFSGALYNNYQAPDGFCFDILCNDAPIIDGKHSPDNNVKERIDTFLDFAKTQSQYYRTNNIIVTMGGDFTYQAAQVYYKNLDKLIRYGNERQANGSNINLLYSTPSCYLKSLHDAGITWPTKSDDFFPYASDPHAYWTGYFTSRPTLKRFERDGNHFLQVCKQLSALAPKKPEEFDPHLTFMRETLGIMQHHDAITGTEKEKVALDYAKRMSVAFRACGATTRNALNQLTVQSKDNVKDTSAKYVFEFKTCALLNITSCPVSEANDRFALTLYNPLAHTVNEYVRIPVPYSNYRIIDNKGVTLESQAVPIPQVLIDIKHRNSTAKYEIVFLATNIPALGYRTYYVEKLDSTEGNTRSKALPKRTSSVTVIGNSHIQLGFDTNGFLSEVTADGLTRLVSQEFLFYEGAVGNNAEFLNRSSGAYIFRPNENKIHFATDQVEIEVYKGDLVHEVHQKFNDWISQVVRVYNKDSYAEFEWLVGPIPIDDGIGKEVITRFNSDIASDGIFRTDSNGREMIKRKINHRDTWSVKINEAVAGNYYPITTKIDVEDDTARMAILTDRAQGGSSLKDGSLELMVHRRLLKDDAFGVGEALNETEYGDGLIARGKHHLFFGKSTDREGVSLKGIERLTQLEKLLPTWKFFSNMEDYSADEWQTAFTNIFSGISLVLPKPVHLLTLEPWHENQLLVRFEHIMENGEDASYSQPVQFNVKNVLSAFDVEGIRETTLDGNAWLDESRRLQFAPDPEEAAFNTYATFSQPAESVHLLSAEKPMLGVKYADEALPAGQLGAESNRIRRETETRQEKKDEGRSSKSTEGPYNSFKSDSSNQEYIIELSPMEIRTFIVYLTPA
Description: Class II α-mannosidase inhibition assay. The class given is biochemical.

Test [3] has as its target T3, jack bean α-mannosidase (JBMan) (Canavalia ensiformis, UniProt C0HJB3).
T3 sequence (C0HJB3 1-981): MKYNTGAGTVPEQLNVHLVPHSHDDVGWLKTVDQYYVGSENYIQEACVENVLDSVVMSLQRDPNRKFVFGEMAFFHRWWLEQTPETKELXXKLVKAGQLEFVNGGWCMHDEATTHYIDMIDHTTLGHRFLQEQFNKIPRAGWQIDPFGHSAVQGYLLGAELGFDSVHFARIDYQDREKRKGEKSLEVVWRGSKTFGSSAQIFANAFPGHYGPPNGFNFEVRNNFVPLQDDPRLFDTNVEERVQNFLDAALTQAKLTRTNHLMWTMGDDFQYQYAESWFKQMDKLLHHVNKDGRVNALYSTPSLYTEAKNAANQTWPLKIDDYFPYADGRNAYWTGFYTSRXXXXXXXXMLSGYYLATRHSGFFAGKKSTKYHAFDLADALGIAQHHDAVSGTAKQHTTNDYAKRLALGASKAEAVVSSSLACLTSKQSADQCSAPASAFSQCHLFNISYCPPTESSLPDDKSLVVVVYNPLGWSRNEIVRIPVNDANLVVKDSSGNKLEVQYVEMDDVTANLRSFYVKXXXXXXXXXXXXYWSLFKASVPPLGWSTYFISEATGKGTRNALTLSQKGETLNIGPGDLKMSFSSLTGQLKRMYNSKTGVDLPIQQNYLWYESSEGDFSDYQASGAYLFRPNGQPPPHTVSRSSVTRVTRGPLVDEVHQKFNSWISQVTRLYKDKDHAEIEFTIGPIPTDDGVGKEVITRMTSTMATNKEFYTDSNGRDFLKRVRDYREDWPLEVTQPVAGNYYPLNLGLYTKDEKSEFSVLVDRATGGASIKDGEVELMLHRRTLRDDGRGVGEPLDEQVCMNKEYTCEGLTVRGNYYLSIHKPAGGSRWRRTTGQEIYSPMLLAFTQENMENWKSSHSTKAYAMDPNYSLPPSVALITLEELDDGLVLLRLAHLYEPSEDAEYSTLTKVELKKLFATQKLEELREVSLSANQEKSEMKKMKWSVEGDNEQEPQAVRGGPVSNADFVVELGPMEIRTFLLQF
Description: Jack bean α-mannosidase inhibition assay. The class given is biochemical.

Test [4] deals with T4, dGMIIb (Drosophila melanogaster Co(II)-activated Golgi α-mannosidase IIb) (Drosophila melanogaster, UniProt Q9VF33).
T4 sequence (Q9VF33 31-1249): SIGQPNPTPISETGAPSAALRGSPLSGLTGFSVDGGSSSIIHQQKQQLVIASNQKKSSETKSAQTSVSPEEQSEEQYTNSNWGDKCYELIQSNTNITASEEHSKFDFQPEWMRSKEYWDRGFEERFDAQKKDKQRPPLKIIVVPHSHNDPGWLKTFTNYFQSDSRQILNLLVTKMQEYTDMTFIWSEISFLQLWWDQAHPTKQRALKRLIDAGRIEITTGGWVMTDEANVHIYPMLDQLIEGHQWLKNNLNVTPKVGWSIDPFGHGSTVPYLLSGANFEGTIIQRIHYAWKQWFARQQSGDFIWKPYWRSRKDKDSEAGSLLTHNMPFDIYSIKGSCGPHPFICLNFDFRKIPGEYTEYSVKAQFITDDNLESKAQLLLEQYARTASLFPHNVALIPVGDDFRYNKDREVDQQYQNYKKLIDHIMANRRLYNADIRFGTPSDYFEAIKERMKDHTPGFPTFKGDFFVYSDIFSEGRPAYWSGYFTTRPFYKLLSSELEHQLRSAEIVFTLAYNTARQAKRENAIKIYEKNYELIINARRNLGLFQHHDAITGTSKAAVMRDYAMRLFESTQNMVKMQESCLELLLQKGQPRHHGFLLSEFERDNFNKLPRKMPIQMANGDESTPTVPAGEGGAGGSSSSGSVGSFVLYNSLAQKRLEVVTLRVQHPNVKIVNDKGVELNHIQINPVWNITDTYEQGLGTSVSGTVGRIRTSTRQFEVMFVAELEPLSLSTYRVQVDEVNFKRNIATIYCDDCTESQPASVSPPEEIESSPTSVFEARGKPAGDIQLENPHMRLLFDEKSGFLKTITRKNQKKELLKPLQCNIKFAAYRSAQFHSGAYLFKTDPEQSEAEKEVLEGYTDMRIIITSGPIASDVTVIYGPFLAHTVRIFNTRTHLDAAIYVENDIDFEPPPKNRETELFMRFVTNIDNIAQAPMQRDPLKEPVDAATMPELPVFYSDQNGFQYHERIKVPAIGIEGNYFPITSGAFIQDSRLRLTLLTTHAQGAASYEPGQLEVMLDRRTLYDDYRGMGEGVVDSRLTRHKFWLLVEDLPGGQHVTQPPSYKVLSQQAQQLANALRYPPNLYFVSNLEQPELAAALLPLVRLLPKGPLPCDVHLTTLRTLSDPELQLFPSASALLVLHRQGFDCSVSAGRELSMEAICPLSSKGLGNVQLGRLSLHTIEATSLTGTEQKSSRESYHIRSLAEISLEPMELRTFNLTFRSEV
The test can be described thus: Class II α-mannosidase inhibition assay. The class given is biochemical.

In test [5] the target is T4, dGMIIb (Drosophila melanogaster Co(II)-activated Golgi α-mannosidase IIb). Particulars: cited from earlier work.
The target in test [6] is T3, jack bean α-mannosidase (JBMan). The note with it: read-out: IC50 JBMan, cited from earlier work.
The target of test [7] is dGMII (Drosophila melanogaster α-mannosidase II). The note with it: read-out: Ki dGMII (printed in dGMIIb column); ref Shah et al.[41]; cited from earlier work.

Turning to `OC[C@H]1O[C@H](n2cc(-c3ccccc3)nn2)[C@@H](O)[C@@H](O)[C@@H]1O` [Compound 6, 1-α-D-mannopyranosyl-4-phenyl-1,2,3-triazole], the IC50 (commonly the midpoint of a concentration-inhibition curve) in test [1] is 50 µM; in test [2] it was 5000 µM; in test [3] it was 400 µM; in test [4], 5000 µM. For the same compound, the “selectivity ratio [IC50(GH38)/IC50(GH47)]” value in test [1] (GH38 mannosidases vs GH47 AspMan) amounted to 100.
Take `OC[C@H]1O[C@H](n2cc(Cc3ccccc3)nn2)[C@@H](O)[C@@H](O)[C@@H]1O` [Compound 7, 4-Benzyl-1-α-D-mannopyranosyl-1,2,3-triazole]: the IC50 in test [1] stood at 100 µM; in test [2] it was 500 µM; in test [3] it was 1100 µM; in test [4], 5000 µM.
For `OC[C@H]1O[C@H](n2cc(CCc3ccccc3)nn2)[C@@H](O)[C@@H](O)[C@@H]1O` [Compound 8, 1-α-D-mannopyranosyl-4-(2-phenylethyl)-1,2,3-triazole], the IC50 in test [1] came to 250 µM; in test [2], 5000 µM; in test [3], 400 µM; in test [4], 6000 µM.
For the compound `O=S(=O)(Cc1ccccc1)[C@H]1O[C@H](CO)[C@@H](O)[C@H](O)[C@@H]1O` [Compound 9, benzyl α-D-mannopyranosyl sulfone], the IC50 in test [3] (read-out: IC50 JBMan, pNP-Manp substrate, pH 4.5) was 2000 µM; in test [5] (read-out: IC50 dGMIIb, ref Poláková et al.[30]), 2000 µM. Moreover, the “selectivity GMII vs LM” value in test [5] (ref [30]) is given as “selective towards GMII”.
Consider `O=C1N[C@@H]2[C@@H](O)[C@@H](O)[C@H](O)[C@@H](CO)N2C1=O` [Kifunensine], for which the IC50 in test [6] (ref Kayakiri et al.[42]) was 120 µM. In addition, the Ki (as a rule, a dissociation constant, usually derived from enzyme kinetics or from competition with a known ligand) in test [7] is 5200 µM.
For the compound `CS[C@@H]1[C@@H](N)[C@@H](O)[C@@H](O)[C@H]1O` [Mannostatin A, reference compound], the IC50 was 3 µM in test [2], 0.24 µM in test [6] (ref Ogawa et al.[44]) and 0.15 µM in test [4].
